The series in a line: Solubility of MGB phosphoramidites in acetonitrile (oligonucleotide synthesis solvent). The format is physicochemical. The following applies: standard solvent for on-line oligosynthesis. As for the experimental part:
Activated pentafluorophenyl ester 1 of the DPI3 type of minor groove bindinding ligands was prepared as previously described (U.S. Pat. No. 7,381,818) and coupled with four secondary amine-containing terminal functions generatin trimers 2(a-d), (Reaction Scheme 1, FIG. 1) suitable for following protection and phosphoramidite preparation. The use of secondary amino function prevents the possibility of the formation of acyclic side-product (Basel and Hassner 2000) during the following protection step. The trimers 2(a-d) were reacted with diethyl pyrocarbonate in the presence of DMAP to protect the three heteroaromatic indolamino groups and afford carbomates 3(a-d). Methyl and tert-butyl dicarbonates were also tested and produced the respective carbamates with good yields. […] Therefore, the ethylcarbamate protection was concluded to be optimal allowing fast deprotection and providing the required solubility in acetonitrile. […]
Test octathymidylates were synthesized on an ABI 3900 DNA synthesizer using thymidine-5′- or 3′-phosphoramidites and a DMT-O-hexylsuccinate solid support. […] Crude reaction mixtures were concentrated in a SpeedVac evaporator and analyzed by mass spectroscopy to confirm molecular weight and determine purity of crude MGB-oligonucleotide conjugates. […]

Take `CCOC(=O)n1c(-c2ccc(OCCCCCCOP(OCCC#N)N(C(C)C)C(C)C)cc2)nc2cc(-c3nc4cc(-c5nc6cc(N7CCN(C)CC7)ccc6n5C(=O)OCC)ccc4n3C(=O)OCC)ccc21` (stereo not shown) [Phosphoramidite 25]: the solubility in acetonitrile result is recorded as “only sparingly soluble”.

The record behind these values is patent publication US9056887B2, “Minor groove binder phosphoramidites and methods of use” (Elitech Holding B.V., priority 2011, dated 2015).
